In patent publication US20100267561A1, “HERBICIDAL PYRIDAZINONE DERIVATIVES” (priority 2007, published 2010):

Columns and labels:
Type in all cases: in vivo
[1] = tested on: surinam grass (Brachiaria decumbens); test: Test B pre-/postemergence plant response; conditions: for Surinam Grass plant response rating: 8 g ai/ha
Method in brief: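 Preemergence and postemergence (plants 2-18 cm, 1- to 4-leaf stage) applications used test chemicals in a non-phytotoxic solvent with surfactant. Plants were held in a greenhouse 13 to 15 days, then rated visually against controls on a 0-100 scale (0 no effect, 100 complete control).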

[2] = tested on: winter barley (Hordeum vulgare); test: Test B postemergence plant response; conditions: for Barley plant response rating: 8 g ai/ha, postemergence, 0-100 scale; for Plant response rating, Barley: Postemergence, scale 0 to 100, 0 no effect, 100 complete control
Method in brief: (§1)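 Postemergence spray on 1- to 4-leaf plants (2–18 cm); greenhouse 13–15 d; visual rating vs controls, 0 = no effect, 100 = complete control; dash = not tested.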

[3] = tested on: canarygrass (Phalaris minor); test: Test B postemergence plant response; conditions: for Canarygrass plant response rating: 8 g ai/ha, postemergence, 0-100 scale; for Plant response rating, Canarygrass: Postemergence
Method in brief: as §1

[4] = tested on: chickweed (Stellaria media); test: Test B postemergence plant response; conditions: for Chickweed plant response rating: 8 g ai/ha, postemergence, 0-100 scale; for Plant response rating, Chickweed: Postemergence
Method in brief: as §1

[5] = tested on: windgrass (Apera spica-venti); test: Test B postemergence plant response; conditions: for Windgrass plant response rating: 8 g ai/ha, postemergence, 0-100 scale; for Plant response rating, Windgrass: Postemergence
Method in brief: as §1

[6] = tested on: large crabgrass (Digitaria sanguinalis); test: Test A pre-/postemergence plant response
Method in brief: (§2)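 Ratings are visual, 0–100, where 100 means complete control and 0 no effect, taken roughly 10 days after treatment by comparison with untreated controls. Formulation: non-phytotoxic solvent mixture with surfactant.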

corn (Zea mays) = test: Test A pre-/postemergence plant response
Method in brief: as §2

[7] = tested on: wheat (Triticum aestivum); test: Test A pre-/postemergence plant response
Method in brief: as §2

[8] = tested on: barnyardgrass (Echinochloa crus-galli); test: Test A pre-/postemergence plant response
Method in brief: as §2

[9] = tested on: morningglory (Ipomoea coccinea); test: Test A pre-/postemergence plant response
Method in brief: as §2

[10] = tested on: velvetleaf (Abutilon theophrasti); test: Test A pre-/postemergence plant response
Method in brief: as §2

[11] = tested on: pigweed (Amaranthus retroflexus); test: Test A pre-/postemergence plant response
Method in brief: as §2

[12] = tested on: giant foxtail (Setaria faberi); test: Test A pre-/postemergence plant response
Method in brief: as §2

[13] = Postemergence, 16 g ai/ha, scale 0 to 100
[14] = Postemergence, 62 g ai/ha, scale 0 to 100, 0 no effect, 100 complete control
[15] = Preemergence, 16 g ai/ha, scale 0 to 100 (0 no effect, 100 complete control)
[16] = Preemergence, 31 g ai/ha, 0 to 100 scale, 0 no effect, 100 complete control
[17] = Preemergence, 62 g ai/ha, scale 0 to 100
[18] = 31 g ai/ha, scale 0 to 100, 0 no effect, 100 complete control
[19] = 62 g ai/ha, scale 0 to 100, 0 no effect, 100 complete control
[20] = Postemergence, 31 g ai/ha, 0 to 100 scale (0 no effect, 100 complete control)
[21] = Postemergence, 125 g ai/ha, 0 to 100 scale, 0 no effect, 100 complete control
[22] = Preemergence, 31 g ai/ha, 0 to 100 scale, 0 is no effect, 100 is complete control
[23] = Preemergence, 125 g ai/ha, 0 to 100 scale (0 no effect, 100 complete control)

COC(=O)Oc1cnn(C)c(=O)c1-n1nc(-c2ccc(Cl)cc2)cc1C [Compound 33]
50: Plant response rating, Windgrass ([5]; 16 g ai/ha, scale 0 to 100) | Plant response rating, Wheat [7, 22]
30: Plant response rating, Barley ([2]; 31 g ai/ha) | Plant response rating, Barley ([2]; 62 g ai/ha) | Plant response rating, Corn (corn (Zea mays); [22])
75: Surinam Grass plant response rating ([1]; Preemergence, scale 0 to 100)
0: Barley plant response rating [2] | Canarygrass plant response rating [3] | Chickweed plant response rating [4] | Plant response rating, Chickweed ([4]; 16 g ai/ha, scale 0 to 100) | Plant response rating, Chickweed [4, 18] | Plant response rating, Chickweed [4, 19] | Plant response rating, Morningglory [9, 20] | Plant response rating, Morningglory [9, 21] | Plant response rating, Morningglory [9, 22] | Plant response rating, Morningglory [9, 23] | Plant response rating, Velvetleaf [10, 20] | Plant response rating, Velvetleaf [10, 21] | Plant response rating, Velvetleaf [10, 22] | Plant response rating, Velvetleaf [10, 23] | Plant response rating, Pigweed [11, 20] | Plant response rating, Pigweed [11, 21] | Plant response rating, Pigweed [11, 23]
35: Plant response rating, Canarygrass ([3]; 16 g ai/ha, scale 0 to 100)
90: Plant response rating, Surinam Grass [1, 15] | Plant response rating, Crabgrass, Large [6, 20] | Plant response rating, Crabgrass, Large [6, 22] | Plant response rating, Corn (corn (Zea mays); [21]) | Plant response rating, Corn (corn (Zea mays); [23]) | Plant response rating, Barnyardgrass [8, 20] | Plant response rating, Foxtail, Giant [12, 20]
80: Plant response rating, Canarygrass [3, 18] | Plant response rating, Wheat [7, 23]
100: Plant response rating, Surinam Grass [1, 13] | Plant response rating, Surinam Grass [1, 14] | Plant response rating, Surinam Grass [1, 17] | Plant response rating, Crabgrass, Large [6, 21] | Plant response rating, Crabgrass, Large [6, 23] | Plant response rating, Barnyardgrass [8, 21] | Plant response rating, Barnyardgrass [8, 22] | Plant response rating, Barnyardgrass [8, 23] | Plant response rating, Foxtail, Giant [12, 21] | Plant response rating, Foxtail, Giant [12, 22] | Plant response rating, Foxtail, Giant [12, 23]
60: Plant response rating, Corn (corn (Zea mays); [20])
20: Plant response rating, Wheat [7, 20]
25: Plant response rating, Barley ([2]; 16 g ai/ha)
10: Windgrass plant response rating [5]
98: Plant response rating, Surinam Grass [1, 16]
70: Plant response rating, Windgrass [5, 19] | Plant response rating, Wheat [7, 21]
85: Surinam Grass plant response rating ([1]; postemergence, 0-100 scale)

Cc1cc(-c2ccc(Cl)cc2)nn1-c1c(OC(=O)C(C)C)cnn(C)c1=O [Compound 34]
40: Plant response rating, Wheat [7, 20]
10: Canarygrass plant response rating [3] | Plant response rating, Canarygrass ([3]; 16 g ai/ha, scale 0 to 100) | Plant response rating, Windgrass ([5]; 16 g ai/ha, scale 0 to 100) | Plant response rating, Pigweed [11, 21]
60: Plant response rating, Corn (corn (Zea mays); [23]) | Plant response rating, Wheat [7, 21]
80: Plant response rating, Surinam Grass [1, 13] | Plant response rating, Windgrass [5, 19] | Plant response rating, Crabgrass, Large [6, 22]
90: Plant response rating, Crabgrass, Large [6, 23] | Plant response rating, Corn (corn (Zea mays); [21]) | Plant response rating, Barnyardgrass [8, 20] | Plant response rating, Foxtail, Giant [12, 20]
20: Plant response rating, Canarygrass [3, 18] | Plant response rating, Canarygrass [3, 19] | Plant response rating, Corn (corn (Zea mays); [22])
95: Surinam Grass plant response rating ([1]; Preemergence, scale 0 to 100)
0: Barley plant response rating [2] | Plant response rating, Barley ([2]; 16 g ai/ha) | Plant response rating, Barley ([2]; 31 g ai/ha) | Chickweed plant response rating [4] | Plant response rating, Chickweed ([4]; 16 g ai/ha, scale 0 to 100) | Plant response rating, Chickweed [4, 18] | Plant response rating, Chickweed [4, 19] | Windgrass plant response rating [5] | Plant response rating, Morningglory [9, 20] | Plant response rating, Morningglory [9, 21] | Plant response rating, Morningglory [9, 22] | Plant response rating, Morningglory [9, 23] | Plant response rating, Velvetleaf [10, 20] | Plant response rating, Velvetleaf [10, 21] | Plant response rating, Velvetleaf [10, 22] | Plant response rating, Velvetleaf [10, 23] | Plant response rating, Pigweed [11, 20] | Plant response rating, Pigweed [11, 22] | Plant response rating, Pigweed [11, 23]
30: Plant response rating, Wheat [7, 22]
100: Plant response rating, Surinam Grass [1, 14] | Plant response rating, Surinam Grass [1, 15] | Plant response rating, Surinam Grass [1, 16] | Plant response rating, Surinam Grass [1, 17] | Plant response rating, Crabgrass, Large [6, 21] | Plant response rating, Barnyardgrass [8, 21] | Plant response rating, Barnyardgrass [8, 23] | Plant response rating, Foxtail, Giant [12, 21] | Plant response rating, Foxtail, Giant [12, 22] | Plant response rating, Foxtail, Giant [12, 23]
70: Surinam Grass plant response rating ([1]; postemergence, 0-100 scale) | Plant response rating, Crabgrass, Large [6, 20] | Plant response rating, Corn (corn (Zea mays); [20]) | Plant response rating, Wheat [7, 23] | Plant response rating, Barnyardgrass [8, 22]
15: Plant response rating, Barley ([2]; 62 g ai/ha)

Cc1cc(-c2ccc(Cl)cc2)nn1-c1c(OS(C)(=O)=O)cnn(C)c1=O [Compound 36]
80: Plant response rating, Crabgrass, Large [6, 20] | Plant response rating, Corn (corn (Zea mays); [21]) | Plant response rating, Corn (corn (Zea mays); [23]) | Plant response rating, Barnyardgrass [8, 20]
15: Plant response rating, Barley ([2]; 31 g ai/ha) | Plant response rating, Barley ([2]; 62 g ai/ha)
50: Plant response rating, Corn (corn (Zea mays); [20]) | Plant response rating, Corn (corn (Zea mays); [22]) | Plant response rating, Wheat [7, 22]
65: Plant response rating, Windgrass [5, 19]
10: Plant response rating, Canarygrass [3, 18] | Plant response rating, Canarygrass [3, 19] | Plant response rating, Pigweed [11, 21]
60: Plant response rating, Wheat [7, 21]
70: Surinam Grass plant response rating ([1]; postemergence, 0-100 scale) | Surinam Grass plant response rating ([1]; Preemergence, scale 0 to 100) | Plant response rating, Crabgrass, Large [6, 22]
90: Plant response rating, Crabgrass, Large [6, 21] | Plant response rating, Wheat [7, 23] | Plant response rating, Barnyardgrass [8, 22] | Plant response rating, Foxtail, Giant [12, 20] | Plant response rating, Foxtail, Giant [12, 21]
85: Plant response rating, Surinam Grass [1, 13]
30: Plant response rating, Pigweed [11, 23]
0: Barley plant response rating [2] | Plant response rating, Barley ([2]; 16 g ai/ha) | Canarygrass plant response rating [3] | Plant response rating, Canarygrass ([3]; 16 g ai/ha, scale 0 to 100) | Chickweed plant response rating [4] | Plant response rating, Chickweed ([4]; 16 g ai/ha, scale 0 to 100) | Plant response rating, Chickweed [4, 18] | Plant response rating, Chickweed [4, 19] | Windgrass plant response rating [5] | Plant response rating, Windgrass ([5]; 16 g ai/ha, scale 0 to 100) | Plant response rating, Wheat [7, 20] | Plant response rating, Morningglory [9, 21] | Plant response rating, Morningglory [9, 22] | Plant response rating, Morningglory [9, 23] | Plant response rating, Velvetleaf [10, 20] | Plant response rating, Velvetleaf [10, 21] | Plant response rating, Velvetleaf [10, 22] | Plant response rating, Velvetleaf [10, 23] | Plant response rating, Pigweed [11, 20] | Plant response rating, Pigweed [11, 22]
100: Plant response rating, Surinam Grass [1, 14] | Plant response rating, Surinam Grass [1, 15] | Plant response rating, Surinam Grass [1, 16] | Plant response rating, Surinam Grass [1, 17] | Plant response rating, Crabgrass, Large [6, 23] | Plant response rating, Barnyardgrass [8, 21] | Plant response rating, Barnyardgrass [8, 23] | Plant response rating, Foxtail, Giant [12, 22] | Plant response rating, Foxtail, Giant [12, 23]
